The assay concerns the target T1, Human HPK1, catalytic domain (Homo sapiens, UniProt Q92918).
T1 construct: purchased Carna
T1 sequence (Q92918 1-346): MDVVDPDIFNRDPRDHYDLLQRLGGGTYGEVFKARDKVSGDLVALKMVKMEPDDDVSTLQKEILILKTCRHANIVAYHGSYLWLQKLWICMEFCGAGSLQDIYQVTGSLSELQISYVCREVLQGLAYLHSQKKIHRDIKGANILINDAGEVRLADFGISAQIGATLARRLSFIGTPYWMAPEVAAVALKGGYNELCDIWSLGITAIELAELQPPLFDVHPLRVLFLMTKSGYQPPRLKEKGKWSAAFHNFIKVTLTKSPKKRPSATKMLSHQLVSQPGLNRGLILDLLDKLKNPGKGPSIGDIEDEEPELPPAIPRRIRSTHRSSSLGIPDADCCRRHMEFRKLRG
Put plainly: HPK1-SLP76 TR-FRET assay. The class given is biochemical. Conditions: 75 pM HPK1, 10 uM ATP, 10 nM SLP76, 30 min compound pre-incubation.

What is called IC50 is the midpoint of a concentration-inhibition curve. The molecule `COc1cc2c(cc1Nc1ncc(C(N)=O)c(N[C@H](C)C3CCCCC3)n1)CN(C)CC2` [Example 26-6, 4-{[(1R)-1-cyclohexylethyl]amino}-2-[(6-methoxy-2-methyl-1,2,3,4-tetrahydroisoquinolin-7-yl)amino]pyrimidine-5-carboxamide] came in with an IC50 of 1.32 nM.
`COc1cc2c(cc1Nc1ncc(C(N)=O)c(N[C@@H]3CCCc4cc(F)ccc43)n1)CN(C)CC2` [Example 26-46, 4-{[(1R)-6-fluoro-1,2,3,4-tetrahydronaphthalen-1-yl]amino}-2-[(6-methoxy-2-methyl-1,2,3,4-tetrahydroisoquinolin-7-yl)amino]pyrimidine-5-carboxamide]: the IC50 was 29.7 nM.
Then `COc1cc2c(cc1Nc1ncc(C(N)=O)c(N[C@H](C)c3cccc(F)c3F)n1)CN(C)CC2` [Example 26-20, 4-{[(1R)-1-(2,3-difluorophenyl)ethyl]amino}-2-[(6-methoxy-2-methyl-1,2,3,4-tetrahydroisoquinolin-7-yl)amino]pyrimidine-5-carboxamide], with 0.45 nM; and `COCCC(=O)N1CCc2cc(OC)c(Nc3ncc(C(N)=O)c(Nc4ccccc4Br)n3)cc2C1` [Example 12-4, 4-[(2-bromophenyl)amino]-2-{[6-methoxy-2-(3-methoxypropanoyl)-1,2,3,4-tetrahydroisoquinolin-7-yl]amino}pyrimidine-5-carboxamide], with 380 nM; and `COc1cc2c(cc1Nc1ncc(C(N)=O)c(N[C@@H]3CCCC[C@H]3CO)n1)CN(C)CC2` [Example 26-32, 4-{[(1R,2R)-2-(hydroxymethyl)cyclohexyl]amino}-2-[(6-methoxy-2-methyl-1,2,3,4-tetrahydroisoquinolin-7-yl)amino]pyrimidine-5-carboxamide], with 1.02 nM.
As for `COc1cc2c(cc1Nc1ncc(C(N)=O)c(Nc3ccnn3C)n1)CN(C)CC2` [Example 7-88, 2-((6-methoxy-2-methyl-1,2,3,4-tetrahydroisoquinolin-7-yl)amino)-4-((1-methyl-1H-pyrazol-5-yl)amino)pyrimidine-5-carboxamide], the midpoint of inhibition, the IC50, lay at 9.16 nM.

(Values after US20230416225A1, “DIAMINOPYRIMIDINE CARBOXAMIDE INHIBITORS OF HPK1” (MERCK SHARP & DOHME LLC, priority 2020, published 2023).)
